Laboratory results as given in patent US10189785B2, “Heterocyclic compound” (TAKEDA PHARMACEUTICAL COMPANY LIMITED, priority 2015, dated 2019).

How the values were obtained:
[1] = tested on: lung adenocarcinoma cell line HCC4006; experiment: HCC4006 cell growth inhibition test (Test Example 2); format: cell-based; conditions: Homo sapiens, 120 h; 1 μM test compound; HCC4006 cells, culture for 5 days, CellTiter-Glo; read-out: Rate of inhibition (%) at 1 μM
Method in brief: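 HCC4006 cells in RPMI-1640 with 10% FBS were seeded at 250 cells/well and dosed with compound the next day. After 5 days, viability was read by CellTiter-Glo luminescence. Percent inhibition was calculated against no-compound control and cell-free blank.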

[2] = tested on: human leukemia cell line PL-21 cancer-bearing mice; experiment: Antitumor test using PL-21 cell (Test Example 3); format: in vivo, mouse
Experimental: The compound of the present invention was evaluated for its antitumor effect on human leukemia cell line PL-21 cancer-bearing mice by the following method.
The human leukemia cell line PL-21 (JCRB) was transplanted to each 6-week-old Icr-scid female mouse (CLEA Japan Inc.) by the subcutaneous injection of 3.0×10^6 cells. The tumor size of successfully engrafted tumor was measured 13 days after the transplantation. The tumor volume was calculated according to the following expression: Tumor volume=Major axis×Minor axis×Minor axis×(½)
Individuals in which the volume of the engrafted tumor reached 100 to 150 mm^3 were selected and used in the experiment as groups each involving 5 or 6 individuals. A 0.5% methylcellulose suspension of each test compound was orally administered to each mouse using the dose (indicated by single dose), the number of doses and the dosing period shown in Table 5. The tumor sizes at the day before the start of the administration and one day after the completion of the administration were measured and the tumor volume was calculated.
The rate of tumor growth (T/C (%)) in the test compound administration group compared with a control administration group was calculated according to the following expression: T/C (%)=(Tumor volume after the completion of the administration of the test compound administration group−Tumor volume before the start of the administration of the test compound administration group)/(Tumor volume after the completion of the administration of the control administration group−Tumor volume before the start of the administration of the control administration group)×100

[3] = molecular target: T1, SPT (SPT2-expressing membrane fraction: human SPT1, human SPT2 and human ssSPTa) (Homo sapiens, UniProt O15269+O15270); experiment: SPT enzyme inhibition test (Test Example 1); format: biochemical; conditions: read-out: Rate of inhibition (%) at 1 μM
T1 construct: Full-length human SPT1, human SPT2 and human ssSPTa used; made in house; host or cells: FreeStyle 293 cells (pcDNA3.1 vectors, cotransfection); crude membrane fraction used
T1 sequence (O15269 1-473): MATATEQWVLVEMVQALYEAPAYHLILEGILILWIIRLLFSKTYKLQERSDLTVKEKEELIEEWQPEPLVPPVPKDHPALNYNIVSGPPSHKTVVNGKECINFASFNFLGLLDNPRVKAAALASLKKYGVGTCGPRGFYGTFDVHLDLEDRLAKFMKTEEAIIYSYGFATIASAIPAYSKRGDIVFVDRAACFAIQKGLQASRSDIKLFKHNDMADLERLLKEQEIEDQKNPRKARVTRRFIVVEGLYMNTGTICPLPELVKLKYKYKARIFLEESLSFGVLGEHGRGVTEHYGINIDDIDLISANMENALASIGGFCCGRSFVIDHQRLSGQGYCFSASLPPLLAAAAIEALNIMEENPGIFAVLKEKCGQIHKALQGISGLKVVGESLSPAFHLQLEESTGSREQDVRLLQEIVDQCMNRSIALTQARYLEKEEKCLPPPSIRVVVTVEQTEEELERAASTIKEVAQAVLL
T1 sequence (O15270 1-562): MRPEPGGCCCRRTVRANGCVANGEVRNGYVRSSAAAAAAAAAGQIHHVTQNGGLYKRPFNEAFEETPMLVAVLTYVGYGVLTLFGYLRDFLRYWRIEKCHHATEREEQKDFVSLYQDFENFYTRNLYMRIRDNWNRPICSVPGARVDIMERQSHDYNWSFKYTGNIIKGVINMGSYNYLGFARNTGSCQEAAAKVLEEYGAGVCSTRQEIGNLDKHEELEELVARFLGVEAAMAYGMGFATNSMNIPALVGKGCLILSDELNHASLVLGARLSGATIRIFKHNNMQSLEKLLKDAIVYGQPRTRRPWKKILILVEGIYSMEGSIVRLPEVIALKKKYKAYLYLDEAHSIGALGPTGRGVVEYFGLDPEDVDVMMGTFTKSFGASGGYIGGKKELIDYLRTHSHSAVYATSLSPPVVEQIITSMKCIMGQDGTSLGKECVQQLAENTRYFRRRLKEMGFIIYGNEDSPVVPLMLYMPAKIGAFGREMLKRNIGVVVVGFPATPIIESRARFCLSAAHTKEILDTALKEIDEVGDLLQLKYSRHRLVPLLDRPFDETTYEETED
T1 sequence (Q969W0 1-71 partner): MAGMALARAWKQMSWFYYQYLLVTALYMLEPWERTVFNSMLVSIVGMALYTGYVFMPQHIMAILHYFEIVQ
Method in brief: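 Membrane fraction (100 μg/mL stock) of cells expressing human SPT1, SPT2 and ssSPTa was preincubated 60 min at RT with compound in 100 mM Hepes pH 8.0 containing EDTA, DTT and 0.01% BSA. Reaction ran 15 min at RT with 2 mM L-serine and 20 μM palmitoyl CoA (solution concentrations), then formic acid quench. Product measured by RapidFire mass spectrometry against a C17-sphinganine internal standard, giving % inhibition.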

[4] = 10 mg/kg orally, administered once every two days, 14 days
[5] = 30 mg/kg orally, administered once every two days, 14 days

In the case of `Cn1nc(C(F)(F)F)cc1C(=O)N[C@@H]1CCN(C(=O)c2cc(Cl)c3nccnc3c2)C[C@@H]1c1ccccc1` [Example 81B, N-((3S,4R)-1-((8-Chloroquinoxalin-6-yl)carbonyl)-3-phenylpiperidin-4-yl)-1-methyl-3-(trifluoromethyl)-1H-pyrazole-5-carboxamide], the inhibition at 1 µM [1] is reported as 54%, the “T/C (%)” value ([2]; 10 mg/kg orally, administered every day for 3 days, 4-day drug holiday, 2 cycles) is reported as 16% and the “T/C (%)” value [2, 4] is reported as 63%. The “T/C (%)” value [2, 5] was 32%.
With `COc1cc(C(=O)N2CC[C@H](NC(=O)c3ccccc3OC(F)(F)F)c3c2cnn3C(C)C)cnc1OC` [Example 162A, N-((7S)-4-((5,6-Dimethoxypyridin-3-yl)carbonyl)-1-isopropyl-4,5,6,7-tetrahydro-1H-pyrazolo[4,3-b]pyridin-7-yl)-2-(trifluoromethoxy)benzamide] the inhibition at 1 µM [1] was 56%, the “T/C (%)” value [2, 4] was 52% and the “T/C (%)” value [2, 5] was 38%.
`Cc1cc(C(=O)N2CC[C@@H](NC(=O)c3ncccc3C(F)(F)F)[C@@H](c3ccccc3)C2)cn2c(C)cnc12` [Example 279B, N-((3S,4R)-1-((3,8-dimethylimidazo[1,2-a]pyridin-6-yl)carbonyl)-3-phenylpiperidin-4-yl)-3-(trifluoromethyl)pyridine-2-carboxamide] was tested, and the inhibition at 1 µM [1] was 44% and the inhibition at 1 µM [3] was 103%.
Molecule `COc1cc(C(=O)N2CC[C@@H](NC(=O)c3ccccc3S(C)(=O)=O)[C@@H](c3ccccc3)C2)cnc1OC` [Example 141B, N-((3S,4R)-1-((5,6-dimethoxypyridin-3-yl)carbonyl)-3-phenylpiperidin-4-yl)-2-(methylsulfonyl)benzamide] has an inhibition at 1 µM [1] of 52% and an inhibition at 1 µM [3] of 101%.
With `COc1cc(C(=O)N2CC[C@@H](NC(=O)c3cc(C4CC4)nn3C)[C@@H](c3ccccc3)C2)cc2nccnc12` [Example 330B, 3-cyclopropyl-N-((3S,4R)-1-((8-methoxyquinoxalin-6-yl)carbonyl)-3-phenylpiperidin-4-yl)-1-methyl-1H-pyrazole-5-carboxamide] the inhibition at 1 µM [1] was 49% and the inhibition at 1 µM [3] was 102%.
With `COc1cc(C(=O)N2CC[C@@H](NC(=O)c3cccnc3C(F)(F)F)[C@@H](c3ccccc3)C2)cnc1OC` [Example 140B, N-((3S,4R)-1-((5,6-dimethoxypyridin-3-yl)carbonyl)-3-phenylpiperidin-4-yl)-2-(trifluoromethyl)nicotinamide] the inhibition at 1 µM [1] was 49% and the inhibition at 1 µM [3] was 101%.
For `O=C(N[C@@H]1CCN(C(=O)c2cc(Cl)c3nccnc3c2)C[C@@H]1c1ccccc1)c1ccccc1OC(F)(F)F` [Example 254B, N-((3S,4R)-1-((8-chloroquinoxalin-6-yl)carbonyl)-3-phenylpiperidin-4-yl)-2-(trifluoromethoxy)benzamide], the inhibition at 1 µM [1] was 55% and the inhibition at 1 µM [3] was 99%.
